The values below come from ChEMBL document CHEMBL1177797, “Discovery of 3,9-diazabicyclo[4.2.1]nonanes as potent dual orexin receptor antagonists with sleep-promoting activity in the rat” (Bioorg Med Chem Lett, 2010).

Data set [1] has as its system Canis familiaris. Put plainly: AUC (0 to 24 hrs) in dog at 3 mg/kg, po and 0.125 mg/kg, iv. It counts as ADME, organism-based, Canis lupus familiaris, Plasma. Particulars: in vivo.
Data set [2] can be described thus: Half life in Sprague-Dawley rat at 10 mg/kg, po and 2 mg/kg, iv. It counts as ADME, organism-based. Conditions: in vivo.
Data set [3] deals with T1, Orexin/Hypocretin receptor type 1 (Homo sapiens, UniProt O43613).
T1 sequence (O43613 whole entry): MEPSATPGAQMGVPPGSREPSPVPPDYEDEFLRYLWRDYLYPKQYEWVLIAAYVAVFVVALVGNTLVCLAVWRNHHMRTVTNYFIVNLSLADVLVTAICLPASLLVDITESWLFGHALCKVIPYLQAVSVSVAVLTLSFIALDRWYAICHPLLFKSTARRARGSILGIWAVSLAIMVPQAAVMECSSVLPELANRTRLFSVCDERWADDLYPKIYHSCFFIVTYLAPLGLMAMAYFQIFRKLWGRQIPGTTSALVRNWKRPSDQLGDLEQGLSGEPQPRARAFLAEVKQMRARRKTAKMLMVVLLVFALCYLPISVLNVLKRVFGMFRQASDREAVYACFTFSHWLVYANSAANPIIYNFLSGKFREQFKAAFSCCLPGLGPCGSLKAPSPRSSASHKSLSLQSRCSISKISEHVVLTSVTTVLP
In words: Antagonist activity at OX1R by FLIPR assay. It counts as functional.

Data set [4] is described as follows: Drug level in Sprague-Dawley rat plasma at 60 mg/kg after 1 hr. It counts as ADME, organism-based. Set-up: dose 60 mg/kg. Conditions: read-out: Drug uptake.
Data set [5] can be described thus: Clearance in Sprague-Dawley rat at 10 mg/kg, po and 2 mg/kg, iv. It counts as ADME, organism-based. Particulars: in vivo.
Data set [6] in a line: Drug level in Sprague-Dawley rat plasma at 10 mg/kg after 2 hrs. It counts as ADME, organism-based. Details: dose 10 mg/kg. Particulars: read-out: Drug uptake.
Data set [7] can be described thus: Ratio of drug level in CSF to plasma in Sprague-Dawley rat at 30 mg/kg after 2 hrs. It counts as ADME, organism-based. Set-up: dose 30 mg/kg.
Data set [8] in a line: Drug level in Sprague-Dawley rat plasma at 30 mg/kg after 2 hrs. It counts as ADME, organism-based. Set-up: dose 30 mg/kg. Particulars: read-out: Drug uptake.
A short description of data set [9]: Drug level in Sprague-Dawley rat CSF at 30 mg/kg after 2 hrs. Conditions: read-out: Drug uptake. It counts as ADME, organism-based, Cerebrospinal fluid. Details: dose 30 mg/kg.
Data set [10] in a line: Drug level in Sprague-Dawley rat CSF at 10 mg/kg after 2 hrs. It counts as ADME, organism-based, Cerebrospinal fluid. Set-up: dose 10 mg/kg. Particulars: read-out: Drug uptake.
Data set [11] in a line: Clearance in dog at 3 mg/kg, po and 0.125 mg/kg, iv. Conditions: in vivo. It counts as ADME, organism-based, Canis lupus familiaris.
Data set [12] is described as follows: Ratio of drug level in CSF to plasma in Sprague-Dawley rat at 60 mg/kg after 1 hr. It counts as ADME, organism-based. Set-up: dose 60 mg/kg.
Data set [13] can be described thus: Drug level in Sprague-Dawley rat plasma at 100 mg/kg after 2 hrs administered in PEG400. It counts as ADME, organism-based. Set-up: dose 100 mg/kg. Particulars: read-out: Drug uptake.
The nature of data set [14]: Drug level in Sprague-Dawley rat CSF at 60 mg/kg after 1 hr. Set-up: dose 60 mg/kg. It counts as ADME, organism-based, Cerebrospinal fluid. Particulars: read-out: Drug uptake.
Data set [15] concerns the target T1, Orexin/Hypocretin receptor type 1. In words: Binding affinity to OX1R.
Data set [16] concerns Rattus norvegicus. Put plainly: AUC (0 to 24 hrs) in Sprague-Dawley rat at 10 mg/kg, po and 2 mg/kg, iv. It counts as ADME, organism-based, Plasma. Conditions: in vivo.
Data set [17] in a line: Oral bioavailability in Sprague-Dawley rat at 10 mg/kg. It counts as ADME, organism-based. Particulars: in vivo.
Data set [18] in a line: Oral bioavailability in dog at 3 mg/kg. Particulars: in vivo. It counts as ADME, organism-based, Canis lupus familiaris.
Data set [19] in a line: Half life in dog at 3 mg/kg, po and 0.125 mg/kg, iv. It counts as ADME, organism-based, Canis lupus familiaris. Conditions: in vivo.
The nature of data set [20]: Cmax in Sprague-Dawley rat at 10 mg/kg, po and 2 mg/kg, iv. It counts as ADME, organism-based. Conditions: in vivo.
Data set [21] addresses T2, Orexin receptor type 2 (Homo sapiens, UniProt O43614).
T2 sequence (O43614 whole entry): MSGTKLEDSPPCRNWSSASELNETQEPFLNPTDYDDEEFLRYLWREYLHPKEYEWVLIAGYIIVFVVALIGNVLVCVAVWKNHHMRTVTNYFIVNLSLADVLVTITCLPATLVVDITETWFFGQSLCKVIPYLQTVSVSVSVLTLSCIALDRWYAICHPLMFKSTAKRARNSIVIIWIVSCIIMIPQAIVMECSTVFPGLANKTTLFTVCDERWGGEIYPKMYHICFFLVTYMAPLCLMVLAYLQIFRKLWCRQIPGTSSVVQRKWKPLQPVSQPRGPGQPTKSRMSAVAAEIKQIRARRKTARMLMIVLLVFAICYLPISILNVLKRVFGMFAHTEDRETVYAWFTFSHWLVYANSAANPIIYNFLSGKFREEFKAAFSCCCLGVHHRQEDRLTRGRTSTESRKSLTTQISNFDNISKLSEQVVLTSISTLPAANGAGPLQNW
In words: Binding affinity to OX2R.

A short description of data set [22]: Ratio of drug level in CSF to plasma in Sprague-Dawley rat at 10 mg/kg after 2 hrs. It counts as ADME, organism-based. Details: dose 10 mg/kg.
Data set [23] in a line: Cmax in dog at 3 mg/kg, po and 0.125 mg/kg, iv. It counts as ADME, organism-based, Canis lupus familiaris. Conditions: in vivo.
The target of data set [24] is T2, Orexin receptor type 2. Put plainly: Antagonist activity at OX2R by FLIPR assay. It counts as functional.
Data set [25] deals with Rattus norvegicus. In words: Effect on sleep-awake pattern in rat assessed as increase in […] at 60 mg/kg/day, po. It counts as functional, organism-based.
For data set [26], the system named is Rattus norvegicus. In words: Effect on sleep-awake pattern in rat assessed as increase in REM sleep at 60 mg/kg/day, po. It counts as functional, organism-based.
Data set [27] relates to Rattus norvegicus. Put plainly: Effect on sleep-awake pattern in rat assessed as decrease in wakefulness at 60 mg/kg/day, po. It counts as functional, organism-based.

Activity calls are given as the source filed them.

By AUC is commonly meant the area under the concentration-time curve, a measure of exposure. High values mean more exposure, low ones less exposure. What is called half-life is the time needed for the level to fall by half in the phase considered. High values mean slow loss, low ones fast loss. A word on the IC50: it is the concentration at which inhibition is half-maximal. Low values mean higher potency, high ones lower potency. For orientation: Kp means the ratio of the level in a tissue or fluid to that in plasma or blood. One may read the Ki as a measure of affinity in units of concentration, obtained from inhibition or displacement. A higher Ki goes with a looser hold on the target. As a reminder, the bioavailability is dose-corrected exposure relative to a reference, in per cent. The Cmax is the peak of the concentration-time curve. Turning to `Cc1ccc(-n2nccn2)c(C(=O)N2C3CCC2CN(c2ncc4ccc(F)cc4n2)CC3)c1` (single isomer, unassigned; 8a) [listing 1 of 2 here], the values for the AUC in data set [1] and in data set [16] were 14.1 µM·h and 1.57 µM·h, respectively. The half-life in data set [2] is 1 h; in [19] it was 1.8 h. Moreover, the IC50 stood at 98 nM in data set [3] and 136 nM in [24]. In addition, the concentration at 1 h in [4] worked out at 14600 nM; in [14], 170 nM. The results for the clearance in [5] and in [11] were 23 mL/min/kg and 3.6 mL/min/kg, respectively. In addition, the concentration at 2 h in [6] was 1100 nM; in data set [8], 3100 nM; in data set [9], 23 nM; in data set [10], 3 nM; in data set [13], 12500 nM. Also, the Kp at 2 h in [7] came out at 0.007; in [22], 0.004. Further, the Kp at 1 h in data set [12] came to 0.011. In addition, the inhibition constant (Ki) in data set [15] is 0.6 nM; in data set [21] it was 0.4 nM. In addition, the bioavailability in data set [17] is 14%; in data set [18], 100%. Also, the Cmax in [20] was found to be 570 nM; in [23], 3400 nM.

Regarding `Cc1ccc(-n2nccn2)c(C(=O)N2C3CCC2CN(c2ncc4ccc(F)cc4n2)CC3)c1` (single isomer, unassigned; 8a) [listing 2 of 2 here], the result in data set [25], in data set [26] and in data set [27] was Active.

Take `Cc1ccc(-n2nccn2)c(C(=O)N2CCCN(c3ncc4ccccc4n3)CC2)c1`: the AUC is 0.44 µM·h in data set [1] and 0.19 µM·h in data set [16]. This molecule also had a clearance in data set [11] of 12 mL/min/kg.

As for `Cc1ccc(-n2nccn2)c(C(=O)N2C[C@H]3CC[C@@H]2CN(c2ncc4ccc(F)cc4n2)C3)c1` (single isomer, unassigned), the figures for the IC50 in [3] and in [24] were 104 nM and 370 nM, respectively. The Ki in data set [15] came out at 10 nM; in data set [21], 2.9 nM.

Consider `O=C(c1cc(Cl)ccc1-n1nccn1)N1C[C@@H]2C[C@H](C1)N(c1ncc3cc(F)ccc3n1)C2`, for which the Ki stood at 0.4 nM in [15] and 0.6 nM in data set [21].

Turning to `Cc1ccc(-n2nccn2)c(C(=O)N2C[C@@H]3CC[C@H]2CCN3c2ncc3ccc(F)cc3n2)c1`, the IC50 is 800 nM in data set [3] and 740 nM in [24]. For the same molecule, the Ki in data set [15] is 7.6 nM; in [21], 14 nM.

On to `Cc1ccc(-n2nccn2)c(C(=O)N2C3CCC2CN(c2ncc4ccc(F)cc4n2)CC3)c1` (single isomer, unassigned; 8b), for which the values for the IC50 in data set [3] and in data set [24] were 99 nM and 150 nM, respectively. The Ki in data set [15] came out at 3.7 nM; in data set [21], 6.7 nM.

On to `Cc1ccc(-n2nccn2)c(C(=O)N2C[C@@H]3CC[C@H]2CN(c2ncc4ccc(F)cc4n2)C3)c1` (single isomer, unassigned), for which the values for the IC50 in data set [3] and in data set [24] were 46 nM and 790 nM, respectively. Moreover, the Ki in [15] worked out at 2 nM; in data set [21], 62 nM.

In the case of `Cc1ccc(-n2nccn2)c(C(=O)N2CC[C@H]3CC[C@@H]2CN3c2ncc3ccc(F)cc3n2)c1`, the IC50 in data set [3] was 1600 nM; in data set [24] it was above 10000 nM. The Ki in data set [15] is 345 nM; in data set [21], 590 nM.

For `Cc1ccc(-n2nccn2)c(C(=O)N2CC[C@@H]3CC[C@H]2CN3c2ncc3ccc(F)cc3n2)c1`, the IC50 stood at 2300 nM in data set [3] and 1450 nM in data set [24]. Also, the results for the Ki in data set [15] and in data set [21] were 160 nM and 105 nM, respectively.

As to `Cc1ccc(-n2nccn2)c(C(=O)N2C[C@H]3CC[C@@H]2CCN3c2ncc3ccc(F)cc3n2)c1`, the IC50 in [3] worked out at 125 nM; in [24] it was 140 nM. The inhibitory constant (Ki) in [15] is 0.6 nM; in data set [21], 2.2 nM.

For `Cc1ccc(-n2nccn2)c(C(=O)N2CCC3CCC(C2)N3c2ncc3ccc(F)cc3n2)c1` (racemic), the IC50 in [3] came out at 72 nM; in [24] it was 175 nM. The Ki in data set [15] came out at 0.9 nM; in data set [21], 0.8 nM.
